Laboratory results from patent US7214663B2, “Tripeptide prodrug compounds” (Medarex, Inc., priority 2001, dated 2007).

Columns and labels:
[1] = Metabolism and clearance of Suc-Leu-Ala-Leu-Dox in mice (plasma, urine); assay type: in vivo, mouse
Protocol: Plasma samples of 100 μl were transferred to microcentrifuge tubes (1.5 mL) and an internal standard of daunorubicin (20 μL at 0.5 mg/ml) was added together with acetonitrile (400 μl). The tubes were capped and briefly vortexed followed by centrifugation at 14,000 rpm. 420 μl from each tube was removed and dried in vacuo. Each sample was reconstituted in 65 μl 20 mM aqueous ammonium formate (AF) pH 4.5 buffer containing acetonitrile (20%) prior to analysis by reverse phase liquid chromatography in combination with tandem mass spectrometry (LC MS/MS).
Urine was collected at 2 and 24 hours post administration from pairs of mice in metabolic cages. Urine samples were diluted with AF buffer containing acetonitrile (20%) to give a target analyte concentration within the practical range of the LC MS/MS assay. 30 μl of each diluted sample was placed in a micro centrifuge tube (1.5 ml) and an internal standard of daunorubicin (20 μL at 0.5 mg/ml) was added together with 50 μl of AF buffer containing acetonitrile (20%). Each sample was then analyzed by LC MS/MS.
An Agilent HP1100 HPLC with DAD detector and Chemstation software was coupled to a PE Sciex API 365 mass spectrometer with an electrospray ion source. HPLC was performed on a TSK-Gel Super ODS, […], 4.6×50 mm (TosoHaas) reversed phase column equipped with a […] C18 guard disc (Higgins Analytical) and stainless steel frit (Upchurch Scientific). Chromatography was performed at room temperature. The flow rate was 0.5 ml/min. Injection volume was 50 μl. Gradient elution was performed using a mobile phase of AF buffer with increasing amounts of acetonitrile. The API 365 was operated at 365° C. in a multiple reaction monitoring mode, set to monitor specific analyte parent-daughter ion pairs. Integration of chromatograms was performed by MacQuan software (PE Sciex) and quantitation of each analyte obtained by comparison to previously obtained calibration curves. Daunorubicin was used as an internal standard in all cases.

[2] = SD-MTD studies, 60 days, normal mice (Example 14); conditions: mouse, in vivo; for MTD: Table 12, re-analyzed data and new data
Protocol: In the single dose Maximum Tolerated Dose (SD-MTD) studies, groups of normal mice were administered intravenous bolus doses of the prodrug. The mice were observed daily for 60 days and body weights measured twice weekly. The SD-MTD was estimated to be equal to the highest dose that produced no death in mice after 60 days.

tumor-bearing nude mice = assay: Repeat-dose tolerability / repeat dose MTD in tumor bearing mice; assay type: in vivo, mouse; conditions: Table 11, five doses at five day or 1 week intervals
Excerpt: (§1) In one study, one animal in each dose group (n=8) was terminated as a possible drug-related toxicity death late in the study, at Days 58 and 57 in the low and high dose-groups respectively. The safety of the compound was evidenced by little body weight loss in either the high or low dose groups (less than 5% of the initial weight) during the 60-day observation period, in surviving animals (FIG. 14). In the other study, both the high and low dose were well tolerated. Only one animal in the high dose group (n=10) had over 15% of body weight loss at the end of the study (Day 61).
(§2) In repeat-dose studies in tumor bearing mice, groups of ten mice were dosed with various amounts of prodrug for a total of five doses at either five day or 1 week intervals. […] Thus, the prodrugs permit a much greater amount of therapeutic agent to be delivered to the body as a whole and thus to the vicinity of the target cell.

[3] = tested on: human colon carcinoma (HT-29); assay: HT-29 xenograft efficacy study
Excerpt: Healthy young male nude mice were subcutaneously injected with 5 million of HT-29 cells.

in vivo [4] = conditions: female, ICR, mouse, iv
Protocol: Plasma was obtained from three individual animals in each group at 5 minutes, 1, 2, 4, or 6 hr.

[5] = tested on: human colon carcinoma (LS174T); assay: LS174T xenograft efficacy study; conditions: doxorubicin-insensitive model
Protocol: Healthy young female nude mice were subcutaneously implanted with chunks of LS174T. […] Tumor size and body weights were measured twice weekly for up to 60 days.

[6] = Metabolism and clearance of Suc-Met-Ala-Leu-Dox in mice (plasma, urine); assay type: in vivo, mouse
Protocol: Plasma samples were obtained at 1 or 4 hours, and urine was collected at 2 and 24 hours post administration. Levels of the prodrug and metabolites were measured by LC-MS with UV detection of doxorubicin.

Namalwa cells (CD10pos) = assay: cells; assay type: cell-based, human; conditions: 24 hours, 3H-thymidine
Protocol: (§3) In addition to LNCaP, a number of B-cell lines, such as Ramos and Namalwa cells express CD10 (CD10^pos cells).
(§4) Suspension cells, BALL-1, Ramos and Namalwa cells were cultured in RPMI media containing 10% heat inactivated fetal calf serum (FCS). On the day of the study, the cells were collected, washed and resuspended at a concentration of 0.5×10^6 cells/ml in RPMI containing 10% FCS. 100 μl of cell suspension was added to 96 well plates. […] Finally 10 μl of a 100 μCi/ml ^3H-thymidine was added per well and the plates were incubated for 24 hours. The plates were harvested using a 96 well Harvester (Packard Instruments) and counted on a Packard Top Count counter. Four parameter logistic curves were fitted to the ^3H-thymidine incorporation as a function of drug molarity using Prism software to determine IC50 values.

in vivo [7] = conditions: female, mouse, iv
[8] = Repeat-dose tolerability / repeat dose MTD in tumor bearing mice; assay type: in vivo, mouse; conditions: mouse, in vivo, Table 12, re-analyzed
Excerpt: as §1, §2

BALL-1 cells (CD10neg) = assay type: cell-based, human; conditions: Ball-1 (CD10neg), 24 hours, 3H-thymidine
Protocol: as §3, §4

Ramos cells (CD10pos) = assay type: cell-based, human; conditions: 24 hours, 3H-thymidine
Protocol: as §3, §4

[9] = tested on: LNCaP (prostate carcinoma) cells; conditions: 48 hours, 3H-thymidine incorporation
Protocol: (§5) Adherent cells, LNCaP (prostate carcinoma), HT-29 (colon carcinoma) and PC-3 (prostate carcinoma), were cultured in DMEM media containing 10% heat inactivated fetal calf serum (FCS). On the day of the study the cells were detached from the plate with a trypsin solution. The collected cells were washed and resuspended at a concentration of 0.25×10^6 cells/ml in DMEM containing 10% FCS. 100 μl of cell suspension were added to 96 well plates and the plates were incubated for 3 hours to allow the cells to adhere. […] The plates were then incubated for 24 hours, pulsed with 10 μl of a 100 μCi/ml ^3H-thymidine and incubated for an additional 24 hours (total incubation time 48 hours). The plates were harvested using a 96 well Harvester (Packard Instruments) and counted on a Packard Top Count Counter. Four parameter logistic curves were fitted to the ^3H-thymidine incorporation as a function of drug molarity using Prism software to determine IC50 values.
(§6) Prostate carcinoma cells, LNCaP and PC-3 cells or colon carcinoma cells HT-29, were incubated with increasing concentration of the indicated compounds for 48 hours and cellular proliferation was measured using the ^3H-thymidine assay.

[10] = tested on: HT-29 (colon carcinoma) cells; conditions: HT29, 48 hours, 3H-thymidine incorporation
Protocol: as §5, §6

[11] = tested on: PC-3 (prostate carcinoma) cells; conditions: PC-3, 48 hours, 3H-thymidine incorporation
Protocol: as §5, §6

[12] = Single dose Maximum Tolerated Dose (SD-MTD) study, 49 days, ICR mice (Examples 5 and 6); conditions: mouse, in vivo, iv, SD-MTD (mg/kg), intravenous bolus, ICR mice, Day 49
Protocol: (§7) In a second single dose Maximum Tolerated Dose (SD-MTD) study, groups of five normal ICR mice were administered intravenous bolus doses of Suc-Leu-Ala-Leu-Dox. The mice were observed daily for 49 days and body weights measured twice weekly.
(§8) In a second single dose Maximum Tolerated Dose (SD-MTD) study, groups of five normal ICR mice were administered intravenous bolus doses of Suc-Leu-Ala-Gly-Dox. The mice were observed daily for 49 days and body weights measured twice weekly.

normal ICR mice = assay: as above
Protocol: as §7, §8

[13] = after single intravenous 117 mg/kg Suc-Leu-Ala-Leu-Dox
[14] = 4.0 mg/kg every 7 days for 5 doses
[15] = after single intravenous 120 mg/kg Suc-Met-Ala-Leu-Dox

## COc1cccc2c1C(=O)c1c(O)c3c(c(O)c1C2=O)C[C@@](O)(C(=O)CO)C[C@@H]3O[C@H]1C[C@H](N)[C@H](O)[C@H](C)O1 [Doxorubicin, reference compound]
[1]; [13]
  Urine 2 hr, percent of administered dose: 0.05%
  Urine 24 hr, percent of administered dose: 0.15%
[1]; female, mouse, in vivo, iv, 117 mg/kg, 1 h
  Plasma 1 hr, percent of administered dose: 0.002%
[1]; female, mouse, in vivo, iv, 117 mg/kg, 4 h
  Plasma 4 hr, percent of administered dose: 0.000%
[2]; Table 11, doses as first stated, intravenous bolus, 60 days
  MTD at 60 days: 4 mg/kg
tumor-bearing nude mice
  Optimal Efficacy Repeat Dose (mg/kg), value in parentheses (doxorubicin equivalent dose): 4 (4) mg/kg
tumor-bearing nude mice; tumor bearing mice, 60 days
  Optimal Efficacy Repeat Dose (mg/kg): 4 (4) mg/kg
[3]; [14]
  Calculated Mean Day of Survival: 30.0 ± 3.7 days
  Extension of Mean Day of Survival over controls: 16.7%
  Number of Long Term Survivors: 0/10
[3]; 4.0 mg/kg every 7 days for 5 doses, listed as doxorubicin
  Calculated Mean Day of Survival: 30 days
In vivo [4]
  AUC: 3.3 µM·h
[5]
  anti-tumor activity in LS174T xenograft: virtually inactive
[6]; [15]
  Urine 2 hr, percent of administered dose: 0.30%
  Urine 24 hr, percent of administered dose: 0.61%
[6]; female, mouse, in vivo, iv, 120 mg/kg, 1 h
  Plasma 1 hr, percent of administered dose: 0.002%
[6]; female, mouse, in vivo, iv, 120 mg/kg, 4 h
  Plasma 4 hr, percent of administered dose: 0.002%
Namalwa cells (CD10pos); Homo sapiens
  IC50: 0.01 µM
In vivo [7]
  MTD at 28 days: 4 to 8 mg/kg

## COc1cccc2c1C(=O)c1c(O)c3c(c(O)c1C2=O)C[C@@](O)(C(=O)CO)C[C@@H]3O[C@H]1C[C@H](NC(=O)CNC(=O)[C@H](C)NC(=O)[C@H](CC(C)C)NC(=O)CCC(=O)O)[C@H](O)[C@H](C)O1 [Suc-Leu-Ala-Gly-Dox]
[2]; SD MTD (mg/kg), value in parentheses: doxorubicin equivalent dose
  MTD: > 141 mg/kg
[2]; read-out: SD MTD
  MTD: > 220 mg/kg
[8]; Repeat Dose MTD (mg/kg), value in parentheses: doxorubicin equivalent dose, Q 5 D × 5 or Q 7 D × 5
  MTD: > 70 mg/kg
[8]; Q 5 D × 5 or Q 7 D × 5 as given per compound, read-out: Repeat Dose MTD
  MTD: > 110 mg/kg
BALL-1 cells (CD10neg)
  IC50: 23.3 µM
Ramos cells (CD10pos)
  IC50: 22.7 µM
[3]; 40 mg/kg every 7 days for 5 doses
  Toxicity (Weight Loss > 20%): 0/7
[3]; 67 mg/kg every 7 days for 5 doses
  Toxicity (Weight Loss > 20%): 0/7
In vivo [4]; 100 umol/kg
  AUC: 310 µM·h
[9]
  IC50: 15 µM
[10]
  IC50: 32 µM
[11]
  IC50: 39 µM
Namalwa cells (CD10pos)
  IC50: 17.3 µM
[12]
  MTD: ≥ 220 mg/kg
Normal ICR mice; any dose level
  acute toxicity, within 24 hours: no acute toxicity
Normal ICR mice; any dose level up to 220 mg/kg
  mortalities, morbidity or significant body weight loss over the 49 day study: no mortalities, morbidity or significant body weight loss
Normal ICR mice; molar basis versus doxorubicin alone
  SD-MTD Molar Ratio (Dox =): 8.8
